Measurements from patent US8507473B2, “3H-imidazo[4,5-b]pyridin-5-ol derivatives useful in the treatment of GPR81 receptor disorders” (Arena Pharmaceuticals, Inc., priority 2008, dated 2013).

Legend:
[1] = biological target: T1, GPR81 (Homo sapiens, UniProt Q9BXC0); assay: HTRF assay for direct cAMP measurement; assay type: cell-based; conditions: CHO-K1 cells stably transfected with GPR81, forskolin-stimulated cAMP
T1 construct: expressed in transfected cells; host or cells: CHO-K1 (ATCC CCL-61), recombinant, stably transfected
T1 sequence (Q9BXC0 whole entry): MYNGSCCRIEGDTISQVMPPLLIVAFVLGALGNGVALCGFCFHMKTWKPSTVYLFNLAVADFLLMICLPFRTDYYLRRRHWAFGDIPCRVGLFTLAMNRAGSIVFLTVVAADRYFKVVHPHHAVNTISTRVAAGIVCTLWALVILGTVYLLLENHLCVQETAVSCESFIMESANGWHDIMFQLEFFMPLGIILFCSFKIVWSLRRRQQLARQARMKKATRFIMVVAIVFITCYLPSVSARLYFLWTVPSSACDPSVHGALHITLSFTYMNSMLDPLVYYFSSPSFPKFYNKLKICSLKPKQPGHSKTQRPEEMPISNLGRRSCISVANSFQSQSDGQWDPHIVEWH
Source text: Compounds were screened for agonists of GPR81 (e.g., human GPR81) using an HTRF® assay for direct cAMP measurement (Gabriel et al, ASSAY and Drug Development Technologies, 1:291-303, 2003) and recombinant CHO-K1 cells stably transfected with GPR81. CHO-K1 cells were obtained from ATCC® (Manassas, Va.; Catalog #CCL-61). An agonist of GPR81 was detected in the HTRF® assay for direct cAMP measurement as a compound which decreased cAMP concentration. The HTRF® assay also was used to determine EC50 values for GPR81 agonists.
The HTRF® assay kit was purchased from Cisbio-US, Inc. (Bedford, Mass.; Catalog #62AM4PEC). The HTRF® assay supported by the kit is a competitive immunoassay between endogenous cAMP produced by the CHO-K1 cells and tracer cAMP labeled with the dye d2. The tracer binding is visualized by a monoclonal anti-cAMP antibody labeled with Cryptate. The specific signal (i.e., fluorescence resonance energy transfer, FRET) is inversely proportional to the concentration of unlabeled cAMP in the standard or sample.
The fluorescence ratio of the samples (test compound or compound buffer) was calculated and used to deduce respective cAMP concentrations by reference to the cAMP standard curve.
The HTRF® assay was carried out using a two-step protocol essentially according to the kit manufacturer's instructions, in 20 μL total volume per well in 384-well plate format (ProxiPlates; PerkinElmer, Fremont, Calif.; catalog #6008280). To each of the experimental wells was transferred 1000 recombinant CHO-K1 cells in 5 μL phosphate buffered saline containing calcium chloride and magnesium chloride (“PBS+”; Invitrogen, Carlsbad, Calif.; catalog #14040) supplemented with IBMX (100 μM) (phosphodiesterase inhibitors; Sigma-Aldrich, St. Louis, Mo.; catalog #I-5879), followed by test compound in 5 μL compound buffer (PBS+ supplemented with 10 μM forskolin (Sigma-Aldrich, St. Louis, Mo.; catalog #F-6886)). The plate was then incubated at room temperature for 1 hour. To each well was then added 5 μl cAMP-d2 conjugate in lysis buffer and 5 μL Cryptate conjugate in lysis buffer according to the kit manufacturer's instructions. The plate was then further incubated at room temperature for 1 hour, after which the assay plate was read.
HTRF® readout was accomplished using a PHERAstar (BMG LABTECH Inc., Durham, N.C.) or EnVision™ (PerkinElmer, Fremont Calif.) microplate reader.

[2] = test system: rat epididymal adipocytes; assay: Glycerol assay (rat adipocyte lipolysis); assay type: cell-based; conditions: rat epididymal adipocytes in vitro, FIG. 5
Experimental: Free glycerol was determined using a free glycerol reagent, Reagent A (Sigma). Adipocyte media (10 μL) was removed and replated in a flat-bottom 96-well plate. Reagent A (100 μL) was then added to each well. After 10-15 minutes, abroad sorbance was read at OD540 on a Spectramax 340PC microplate reader (Molecular Devices). The amount of glycerol released was calculated based on regression analysis of known glycerol concentrations using a glycerol standard (Sigma).
Epididymal fat pads were surgically removed from CO2-anesthetized male Sprague Dawley rats, weighing 300-500 g. The adipose tissue was minced and suspended in Krebroad s-Ringer bicarbonate HEPES buffer (containing […], […] (monobasic), […] MgSO4.7H2O, […] CaCl2, 1 mM NaHCO3, 3 mM HEPES, 200 nM adenosine, and 1% BSA) with 2.5 mg of collagenase (Sigma) per gram of tissue. The suspension was incubated in an orbital shaker at 37° C. for 40 minutes with constant agitation. Cells were then filtered through a 500 μm mesh filter. For each filter used, 10 mL of buffer was added to the cell suspension to aid with the filtration. Cells were spun at 1000 rpm for 1 minute. A glass Pasteur pipette was then used to remove all buffer remaining below the floating adipocyte layer. Approximately 30 mL of new buffer was then added to the adipocytes and they were incubated for 5 minutes at 37° C. […]

[3] = test system: Male Sprague Dawley rats; assay: NEFA assay, circulating free fatty acids in rats; assay type: in vivo, rat; conditions: after injection of 100 mpk, FIG. 6
Experimental: (§1) The supplied standard was diluted with DI water to 1, 0.5, 0.25, 0.125, 0.0625, 0.03125. A water blank was also prepared. Serum samples and standards were dispensed (5 μl/well) to wells of a 96-well plate. Reagent A (100 μL) was added to each well and incubated for 10 minutes at 37° C. Reagent B (200 μL) was then added to each well and incubated for another 10 minutes at 37° C. After equilibration for 5 minutes at room temperature (about 25° C.), the abroad sorbance was measured on a plate reader at 550 nm.
Male Sprague Dawley rats (10-12 weeks old) were obtained from Charles River Labroad s pre-cannulated with right jugular catheters for sample collection. Rats were food deprived overnight (by removing food pellets from the cage) for approximately 16 hours with ad libitum access to water. Canulae were flushed with saline to remove heparin and to clear the catheter line 30 minutes prior to the first (basal) sample collection. Basal samples were collected in a staggered dose manner (e.g. vehicle, high dose, low dose, low dose, high dose, and vehicle). Rats were injected per oral (PO), 2 mL/kg with 5% HPBCD (Hydroxypropyl-β-cyclodextrin) or with drug in 5% HPBCD. Blood (500-700 μl) was drawn via catheter at 10, 20, 40, 60, 120, and 240 minutes post dosing, and saline (about 200 μl) was infused into the catheter to ensure patency. […]

[4] = test system: Male C57/B16 mice; assay: NEFA assay, circulating free fatty acids in mice; assay type: in vivo, mouse; conditions: FIG. 7
Experimental: as §1
Male C57/B16 mice (8-10 weeks old; about 23 g) were food deprived (by removing food pellets from the cage) for 5 hours with ad libitum access to water. Animals were then dosed with vehicle (5% HPBCD) or drug via intraperitoneal (IP) injection at the desired concentration in a volume of 10 mL/kg. After 30 minutes, mice were euthanized via CO2 asphyxiation and about 300 μl of blood were immediately collected by cardiac puncture. The blood was transferred to an Eppendorf tube and capped on ice. The blood was then centrifuged on a table top centrifuge (4000 rpm at 4° C. for 10 minutes). Serum was collected in a new microfuge tube and re-centrifuged (4000 rpm at 4° C. for 10 minutes). Serum samples were dispensed (5 μl/well) to wells of a 96-well plate.

[5] = biological target: T1, GPR81; assay: GPR81 [35S]GTPγS binding assay; assay type: biochemical; conditions: membranes of CHO-K1 cells stably transfected with GPR81
Experimental: Compounds were screened for agonism of GPR81 (e.g. human GPR81) using a GTPγS binding assay and CHO-K1 cells stably transfected with GPR81.
GPR81 stably transfected CHO-K1 cells were grown in F-12 Kaighn's Modified Cell Culture Medium with 10% FBS, 2 mM L-glutamine, 1 mM sodium pyruvate and 400 μg/ml G418. For 15 cm^2 plates, cells were rinsed with 5 mL cold PBS and aspirated. Cold membrane scrape buffer (20 mM HEPES, 10 mM EDTA, pH 7.4) was added and cells were scraped off the plate and transferred to a 50 mL centrifuge tube. Cells were spun at 20,000 rpm for 17 minutes at 4° C. The supernatant was aspirated and the pellet was re-suspended in cold membrane wash buffer (30 mL, 20 mM HEPES, 0.1 mM EDTA, pH 7.4). Cells were spun at 20,000 rpm for 17 minutes at 4° C. The supernatant was aspirated away from the membrane pellet. The pellet may be frozen at −80° C. for later use or may be used immediately.
The membrane pellet was thawed (if frozen) on ice and homogenized briefly until in suspension using a polytron mixer (POLYTRON PT3100, probe PT-DA 3007/2 at setting of 7000 rpm). The membrane protein concentration was determined using a Bradford assay. The membrane protein was diluted to a protein concentration of 0.20 mg/mL in binding buffer (20 mM HEPES, pH 7.4, 100 mM NaCl, 10 mM MgCl2) for a final assay concentration of 5 μg/well. Compound plates to be screened were thawed (daughter plates with 5 μL compound@2 mM in 100% DMSO). The 2 mM compounds were diluted 1:50 with 245 μL GDP buffer (binding buffer plus GDP, Sigma-Aldrich Catalog #87127, ranging from 0.4 to 40 μM, made fresh before assay) to 40 μM in 2% DMSO. Compounds in GDP buffer (25 were added per well of a Scintistrip plate (Wallac Catalog #1450-501) and then 50 μL of membrane preparation (0.4 mg protein/mL) was added to each well. The plates were then covered with foil and incubated for 5-10 minutes at room temperature. Subsequently, 25 μL of diluted [^35S]GTPγS (Amersham Biosciences Catalog #SJ1320, about 2000 Ci/mmol (made by adding 5 μL [^35S]GTPγS stock into 10 ml binding buffer) was added to the wells. The plates were covered with foil and incubated on a shaker (Lab-Line model #1314, at setting of 4) for 60 minutes at room temperature. The assay was stopped by sealing the plates with plate covers and spinning the plates at 4000 rpm for 15 minutes at 22° C. The supernatant of each well was apirated using an eight-channel manifold and the plate was read in a Wallac Microbeta counter 1450 set up to detect ^35S.

SMILES | EC50 [1] | EC50 [5] | also measured
Nc1nc2ccc(O)nc2n1-c1ccccc1 [Compound 9, 2-Amino-3-phenyl-3H-imidazo[4,5-b]pyridin-5-ol] | 1050 nM |  | 
Oc1ccc2ncn(-c3ccccc3Cl)c2n1 [Compound 25, 3-(2-Chlorophenyl)-3H-imidazo[4,5-b]pyridin-5-ol] |  |  | inhibition of lipolysis [2]: inhibition of lipolysis; circulating free fatty acids [3]: significant decrease of circulating free fatty acids; circulating free fatty acids [4]: significant decrease of circulating free fatty acids
Oc1ccc2ncn(-c3ccccc3C(F)(F)F)c2n1 [Compound 28, 3-(2-(Trifluoromethyl)phenyl)-3H-imidazo[4,5-b]pyridin-5-ol] |  |  | circulating free fatty acids [4]: significant decrease of circulating free fatty acids
Oc1ccc2ncn(C3CCCCCC3)c2n1 [Compound 48, 3-Cycloheptyl-3H-imidazo[4,5-b]pyridin-5-ol] | 350 nM |  | 
Oc1ccc2ncn(C34CC5CC(CC(C5)C3)C4)c2n1 [Compound 114, 3-(Adamant-1-yl)-3H-imidazo[4,5-b]pyridin-5-ol] |  | 30.3 nM | 
Oc1ccc2nc(Cl)n(C3CCCCC3)c2n1 [Compound 127, 2-Chloro-3-cyclohexyl-3H-imidazo[4,5-b]pyridin-5-ol] |  | 75.3 nM | 

More lines, main results first:

EC50 [1] | EC50 [5] | SMILES | also measured
2760 nM |  | Oc1ccc2ncn(-c3cccc(Cl)c3F)c2n1 [Compound 50, 3-(3-Chloro-2-fluorophenyl)-3H-imidazo[4,5-b]pyridin-5-ol] | 
 | 1390 nM | Oc1ccc2ncn(-c3ccc(Cl)cc3C(F)(F)F)c2n1 [Compound 56, 3-(4-Chloro-2-(trifluoromethyl)phenyl)-3H-imidazo[4,5-b]pyridin-5-ol] | 
2330 nM |  | Cc1c(F)cccc1-n1c(N)nc2ccc(O)nc21 [Compound 64, 2-Amino-3-(3-Fluoro-2-methylphenyl)-3H-imidazo[4,5-b]pyridin-5-ol] | 
 | 81.5 nM | Oc1ccc2nc(Cl)n(-c3ccccc3C3CC3)c2n1 [Compound 133, 2-Chloro-3-(2-Cyclopropylphenyl)-3H-imidazo[4,5-b]pyridin-5-ol] | 
